For data set [1], the system named is Hepatitis B virus. Put plainly: Antiviral activity against HBV assessed as inhibition of viral surface antigen secretion. The format is functional, organism-based.
Data set [2] in a line: Selectivity index, ratio of CC50 for human HepG2(2.2.15) cells to IC50 for HBV early antigen secretion. The format is functional.
The subject of data set [3] is Hepatitis B virus. Nature of the data set: Antiviral activity against HBV assessed as inhibition of viral early antigen secretion. The format is functional, organism-based.
A short description of data set [4]: Cytotoxicity against human HepG2(2.2.15) cells. It counts as cell-based.
Data set [5] is described as follows: Selectivity index, ratio of CC50 for human HepG2(2.2.15) cells to IC50 for HBV surface antigen secretion. It counts as functional.

Structures are written as SMILES. Where only a bound is given, the exact number is not on record here.

`CCOCC(=O)O[C@@H](C[C@@H](C)[C@]12CC[C@@]3(C)[C@@]1(C[C@H](OC(=O)COCC)[C@H]1[C@@]4(C)CCC(=O)C(C)(C)[C@@H]4CC[C@@]13C)O2)[C@@H](OC(=O)COCC)C(C)(C)O`: the IC50 was 130 µM with Hepatitis B virus [1] and more than 250 µM with Hepatitis B virus [3]. The “Ratio CC50/IC50” value in data set [2] was less than 1; in data set [5] it was 1.9. For the same compound, in data set [4], the cytotoxic concentration (CC50) was determined as 250 µM.
Turning to `CC(=O)OCC(=O)O[C@@H](C[C@@H](C)[C@]12CC[C@@]3(C)[C@@]1(C[C@H](OC(=O)COC(C)=O)[C@H]1[C@@]4(C)CCC(=O)C(C)(C)[C@@H]4CC[C@@]13C)O2)[C@@H](OC(=O)COC(C)=O)C(C)(C)O`, the half-inhibitory concentration (IC50) was 120 µM with Hepatitis B virus [1] and more than 250 µM in the data set on Hepatitis B virus [3]. In addition, the “Ratio CC50/IC50” value is reported as less than 1 in data set [2] and 2.1 in data set [5]. This compound also came in with a half-maximal cytotoxic concentration (CC50) in data set [4] of 250 µM.
The matching figures for `CCOCC(=O)O[C@@H](C[C@@H](C)[C@]12CC[C@@]3(C)[C@@]1(C[C@H](OC(=O)COCC)[C@H]1[C@@]4(C)CCC(=O)C(C)(C)[C@@H]4CC[C@@]13C)O2)[C@@H](OC(=O)COCC)C(C)(C)OC(=O)COCC`: 250 µM, 320 µM, more than 4.4, more than 5.6 and more than 1400 µM.
For `Nc1ccn([C@@H]2CS[C@H](CO)O2)c(=O)n1` [LAMIVUDINE], the IC50 in the data set with Hepatitis B virus [1] was found to be 18000 µM; in the data set on Hepatitis B virus [3], 38000 µM. Also, the “Ratio CC50/IC50” value was 0.82 in data set [2] and 1.7 in data set [5]. In addition, the midpoint of cytotoxicity in data set [4], the CC50, lay at 31000 µM.

Values taken from ChEMBL document CHEMBL1153983, “Anti-HBV agents. Part 2: synthesis and in vitro anti-hepatitis B virus activities of alisol A derivatives” (Bioorg Med Chem Lett, 2009).
